Test systems include 786-0; BT-549; CAKI-1; CCRF-CEM; DU-145; EKVX; HCC 2998; HL-60; HOP-92; LOX IMVI; NCI-H460; OVCAR-5; PC-3; RPMI-8226; RXF 393; SF-268; SF-539; SK-MEL-28; SK-MEL-2; UACC-62.
Holding throughout (assay): DTP human tumour cell line panel, 48 h

SMILES strings stand for the structures.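 Values below derive from 48-hour exposures of cells grown in 96-well plates, with endpoints linearly interpolated between the two concentrations bracketing the appropriate inhibition level. The concentration for 50% growth inhibition is given as GI50.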 Calls of active or inactive are those of the source. No stated cut-off is given here; in the data, active = GI50 up to about 1.1 µM and inactive = higher. Bounds are passed on as bounds.

In the case of `c1ccc(CNCCCNCCCCNCCCNCc2ccccc2)cc1`, the GI50 was 1.5 µM (inactive) with 786-0; 16.7 µM (inactive) in the assay on BT-549; 10.3 µM (inactive) with CAKI-1; 1.86 µM (inactive) in the assay with CCRF-CEM; 12.8 µM (inactive) in the assay on DU-145; 9.42 µM (inactive) in the assay with EKVX. The GI50 in the assay with HCC 2998 is 5.66 µM (inactive); in the assay on HL-60, 0.656 µM (active); in the assay on HOP-92, 1.42 µM (inactive); in the assay on LOX IMVI it was 3.15 µM (inactive); in the assay with NCI-H460, 6.27 µM (inactive); in the assay on OVCAR-5 it was 5.22 µM (inactive). Besides, the GI50 is 4.88 µM (inactive) in the assay on PC-3; 2.22 µM (inactive) with RPMI-8226; 12.4 µM (inactive) in the assay with RXF 393; 12.2 µM (inactive) in the assay on SF-268; 1.76 µM (inactive) with SF-539; 12.1 µM (inactive) with SK-MEL-28. Moreover, the GI50 in the assay on SK-MEL-2 was 14.7 µM (inactive); in the assay with UACC-62 it was 6.59 µM (inactive).
As for `CO[C@H](c1ccccc1)[C@H](O)[C@](O)(c1ccccc1)P(=O)(OC)OC`, the GI50 in the assay with 786-0, in the assay with BT-549, in the assay with CAKI-1, with CCRF-CEM, in the assay with DU-145 and with EKVX was > 100 µM (inactive) throughout. Moreover, the GI50 in the assay on HCC 2998, in the assay with HL-60, in the assay on HOP-92, in the assay on LOX IMVI, in the assay on NCI-H460 and with OVCAR-5 was > 100 µM (inactive) in each case. The GI50 in the assay on PC-3, in the assay on RPMI-8226, in the assay on RXF 393, in the assay with SF-268, in the assay with SF-539 and in the assay with SK-MEL-28 was > 100 µM (inactive) in each case. The GI50 in the assay with SK-MEL-2 and in the assay with UACC-62 was > 100 µM (inactive) in each case.
Consider `CSc1nc(C)cc(Nc2ccc(O)c(CN3CCOCC3)c2)n1`, for which the GI50 was > 100 µM (inactive) in the assay on 786-0; > 100 µM (inactive) in the assay on BT-549; > 100 µM (inactive) in the assay on CAKI-1; > 100 µM (inactive) in the assay on CCRF-CEM; > 100 µM (inactive) with DU-145; 83 µM (inactive) in the assay on EKVX. The GI50 with HCC 2998 was > 100 µM (inactive); with HL-60, > 100 µM (inactive); with HOP-92, 62.8 µM (inactive); with LOX IMVI it was > 100 µM (inactive); in the assay with NCI-H460, > 100 µM (inactive); in the assay with OVCAR-5, > 100 µM (inactive). Besides, the GI50 in the assay with PC-3, in the assay with RPMI-8226, in the assay on RXF 393, in the assay on SF-268, in the assay on SF-539 and in the assay with SK-MEL-28 was > 100 µM (inactive) throughout. Besides, the GI50 with SK-MEL-2 and in the assay with UACC-62 was > 100 µM (inactive) throughout.
Take `O=C(CNc1ccc([N+](=O)[O-])cc1)Nn1c(-c2ccccc2)nc2ccccc2c1=O`: the GI50 in the assay on 786-0 is 2.4 µM (inactive); in the assay with BT-549 it was 1.82 µM (inactive); with CAKI-1 it was 2.24 µM (inactive); in the assay with CCRF-CEM, 0.811 µM (active); in the assay with DU-145, 8.91 µM (inactive); with EKVX it was 13.4 µM (inactive). Besides, the GI50 in the assay with HCC 2998 was 9.02 µM (inactive); with HL-60, 2.26 µM (inactive); with HOP-92 it was 0.377 µM (active); in the assay on LOX IMVI, 0.841 µM (active); with NCI-H460, 3.81 µM (inactive); in the assay on OVCAR-5 it was 5.73 µM (inactive). For the same compound, the GI50 in the assay on PC-3 is 3.07 µM (inactive); with RPMI-8226, 2.47 µM (inactive); with RXF 393, 2.82 µM (inactive); with SF-268, 4.23 µM (inactive); in the assay with SF-539, 2.85 µM (inactive); in the assay with SK-MEL-28, 3.25 µM (inactive). The GI50 in the assay on SK-MEL-2 was 2.15 µM (inactive); in the assay on UACC-62 it was 1.32 µM (inactive).
On to `Cc1ccc2c(n1)C(=O)C=CC2=O`, for which the GI50 in the assay with 786-0 was 5.96 µM (inactive); with BT-549 it was 16.5 µM (inactive); in the assay with CAKI-1 it was 2.02 µM (inactive); in the assay with CCRF-CEM it was 1.17 µM (inactive); in the assay on DU-145, 14.8 µM (inactive); with EKVX, 7.03 µM (inactive). Besides, the GI50 in the assay with HCC 2998 is 16.3 µM (inactive); with HL-60, 0.486 µM (active); with HOP-92, 3.9 µM (inactive); with LOX IMVI, 4.88 µM (inactive); in the assay with NCI-H460 it was 17.4 µM (inactive); with OVCAR-5, 18.2 µM (inactive). Further, the GI50 is 16.8 µM (inactive) in the assay with PC-3; 2.59 µM (inactive) with RPMI-8226; 5.93 µM (inactive) in the assay on RXF 393; 20.9 µM (inactive) with SF-268; 16.5 µM (inactive) in the assay with SF-539; 3.56 µM (inactive) in the assay with SK-MEL-28. Also, the GI50 is 16.7 µM (inactive) with SK-MEL-2 and 13.7 µM (inactive) with UACC-62.
Take `Cc1ccc(S(=O)(=O)/N=C2/N(C)CCCS2(=O)=O)cc1`: the GI50 with 786-0, in the assay on BT-549, in the assay on CAKI-1, in the assay on CCRF-CEM, with DU-145 and with EKVX was > 100 µM (inactive) in each case. In addition, the GI50 in the assay with HCC 2998, in the assay on HL-60, with HOP-92, with LOX IMVI, with NCI-H460 and in the assay with OVCAR-5 was > 100 µM (inactive) in each case. The GI50 in the assay on PC-3, with RPMI-8226, in the assay on RXF 393, with SF-268, in the assay on SF-539 and in the assay on SK-MEL-28 was > 100 µM (inactive) each time. The GI50 in the assay on SK-MEL-2 and with UACC-62 was > 100 µM (inactive) in each case.
Turning to `COc1cccc(/C=C2\N=C(c3ccccc3)OC2=O)c1`, the GI50 was 74.5 µM (inactive) in the assay with 786-0; 40.6 µM (inactive) with BT-549; > 100 µM (inactive) in the assay on CAKI-1; 25 µM (inactive) with CCRF-CEM; 91.2 µM (inactive) in the assay on DU-145; > 100 µM (inactive) in the assay on EKVX. The GI50 in the assay with HCC 2998 was 49.7 µM (inactive); in the assay on HL-60, 10.7 µM (inactive); in the assay on HOP-92, > 100 µM (inactive); in the assay with LOX IMVI, 26.4 µM (inactive); with NCI-H460, 50.7 µM (inactive); in the assay on OVCAR-5, > 100 µM (inactive). For the same compound, the GI50 with PC-3 is > 100 µM (inactive); with RPMI-8226, 35.1 µM (inactive); in the assay on RXF 393 it was > 100 µM (inactive); in the assay on SF-268, > 100 µM (inactive); with SF-539, 43.1 µM (inactive); with SK-MEL-28, > 100 µM (inactive). For the same compound, the values for the GI50 with SK-MEL-2 and with UACC-62 were 56.1 µM (inactive) and > 100 µM (inactive), respectively.

What is called GI50 is the concentration at which growth is held to half of that of the control.

For the origin of these results see ChEMBL document CHEMBL1201862, “PubChem BioAssay data set” (2004).
